Data as given in patent US20010002252A1, “TOOTH WHITENING PREPARATIONS” (priority 1994, published 2001).

Experiment: Tooth whitening by brushing of extracted bovine teeth with toothpaste slurry, colorimeter L value
Procedure: Tooth whitening was measured by the following process:
Whitening was determined using a modification to a system normally employed in the dental arts for determining the abrasivity of dentifrices.
Bovine jaws were obtained at a local abattoir and the teeth were extracted in their native state; no pre-cleaning was done. Teeth were mounted in a cap with dental acrylic so as to fit the format of a colorimeter and the brushing instrument: a detailed description is given below. An initial brushing was done with a slurry of Crest Regular toothpaste and an Oral B40, medium bristle, toothbrush. Then an initial L value was determined on a colorimeter (Hunter). This was designated as the initial whiteness value. The wear tester device was manufactured by Ramè-Hart, of Mountain Lakes, N.J. This machine has often been used to test the abrasivity of dental preparations. Tooth brushes were mounted and the teeth and brushes aligned. A 1:3 slurry of paste and water was poured into the trays and brushing commenced for a total of six hours. The slurry was replaced hourly. At 3 and 6 hours L value determinations were made. This was done by first rinsing the teeth with deionized water, then placing them in a closed container at 100% humidity for 1 hours, then taking a reading on the colorimeter to obtain a 3 hour and 6 hour L value.
Toothpaste slurries were tested for their whitening effect. […]

O=P(O)(O)OP(=O)(O)OP(=O)(O)O [STP, sodium tripolyphosphate]
tooth whitening as compared with the placebo base (10% or higher STP in Table I toothpaste base, 1:3 slurry of paste and water, brushing 6 hours, L value at 3 and 6 hours): superior tooth whitening | pH at which the best whitening results were obtained (STP toothpaste slurries, pH adjusted with 3M NaOH or 3M HCl): around 8.0
